Test results as given in patent US20210137948A1, “TREATMENT OF INFECTIONS CAUSED BY NEISSERIA GONOCOCCUS USING A HALOGENATED SALICYLANILIDE” (priority 2018, published 2021).
Read-outs that look alike come from different tables or passages of the source.

How the values were obtained:
cats = details: p.o.; cited from earlier work
mice = details: p.o.; cited from earlier work
rats = details: cited from earlier work
[1] = test system: Neisseria gonorrhoeae CDC panel consisting of 48 isolates; assay: Agar dilution MIC, CDC panel of 48 isolates (Example 2); format: cell-based; details: for MIC: Neisseria gonorrhoeae, read-out: Minimal inhibitory concentration
Procedure: Neisseria gonorrhoeae (Neisseria gonocossus) were tested for antimicrobial susceptibility using agar dilution as described by the Clinical and Laboratory Standards Institute (CLSI), see reference (4).
The concentrations tested for each compound encompass the reported interpretive breakpoints and consist of 8 or more doubling dilutions, ensuring that there is one dilution below the lowest value of QC.
GC agar base +1% defined growth supplement.
Initial screening strains: Neisseria gonorrhoeae CDC panel consisting of 48 isolates. The strains were provided by Clinical and Environmental Microbiology Branch, Division of Healthcare Quality Promotion, CDC (Atlanta, US).
Dilution scheme for reference method: Prepare intermediate 100× antimicrobial agent solutions by making successive serial twofold dilutions. Then, add one part of the 100× antimicrobial solution to […] of molten agar. Plates containing no antimicrobial agent solutions are made for use as growth controls. It is important that no longer than one hour elapses between the time that the stock solution is thawed, the dilutions are prepared and added to the base medium and the plates are poured, see reference (5).
• Add appropriate dilutions of antimicrobial solution to molten test agars that have been allowed to equilibrate in a water bath to 50° C. • Mix the agar and antimicrobial solution thoroughly and pour (20 mL) into Petri dishes on a level surface. Pour quickly after mixing to prevent cooling and partial solidification in the mixing container. Avoid generating bubbles when mixing. • Allow the agar to solidify at room temperature and store them in sealed plastic bags at 2 to 8° C. for up to five days. Preferably use with 24 hours. • Allow plates stored at 2 to 8° C. to equilibrate to room temperature before use. Make certain that the agar surface is dry before inoculating the plates. If necessary, place the plates in an incubator or laminar flow hood for approximately 30 minutes with their lids ajar to hasten drying of the agar surface.
Inoculum preparation: Prepare a standardized inoculum for the agar dilution method by suspending isolated colonies of Neisseria gonorrhoeae selected from an 18-24 hour-old chocolate agar plate directly in Mueller Hinton Broth (MHB) to achieve the density equivalent to a 0.5 McFarland standard and adjusted to obtain a cell density of ˜1-2×10^8 CFU/mL. For N. gonorrhoeae, the McFarland solutions are made at a reading of ˜0.80 in densitometer (Grant Instruments DEN-1B Densitometer) because these values have been evaluated and correspond to the desired CFU/mL count.
Dilution of inoculum suspension: Cultures adjusted to the 0.5 McFarland standard contain approximately 1 to 2×10^8 CFU/mL with most species, and the final inoculum required is 10^4 CFU per spot. When using replicators with 3-mm pins that deliver ˜2.5 μL, dilute the 0.5 McFarland suspension 1:10 in sterile MHB to obtain a concentration of 10^7 CFU/mL. The final inoculum on the agar will be approximately 10^4 CFU per spot. Use the adjusted suspensions for final inoculation within 60 minutes of preparation, see reference (5).
The following procedure was followed: • Arrange the tubes containing the adjusted and diluted bacterial suspensions (10^7 CFU/mL) in order in a rack. Place an aliquot of each well-mixed suspension into the corresponding well in the replicator inoculum block (if being used). • Mark the agar plates for orientation of the inoculum spots. • Apply an aliquot of each inoculum (2.5 μL) to the agar surface, either with an inocula-replicating device or pipette, to obtain a final concentration of ˜10^4 CFU/spot. • Inoculate a growth-control plate (no antimicrobial agent) first and then, starting with the lowest concentration, inoculate the plates containing the different antimicrobial concentrations. […]

rabbits = details: p.o.; cited from earlier work
[2] = cited from earlier work

Question: Which LD50 (cats) does the source give for `O=C(Nc1ccc([N+](=O)[O-])cc1Cl)c1cc(Cl)ccc1O` [Niclosamide, 2′,5-dichloro-4′-nitrosalicylanilide] here?
Answer: > 1000 mg/kg

Question: And the LD50 (mice)?
Answer: > 5000 mg/kg

Question: And the LD50 (rats; dermal)?
Answer: 2000 mg/kg

Question: And the LD50 (rats; p.o.)?
Answer: 5000 mg/kg

Question: And the MIC ([1]; Neisseria gonorrhoeae strain CDC # 165)?
Answer: ≤ 0.25 µg/mL

Question: And the MIC ([1]; Neisseria gonorrhoeae strain CDC # 166)?
Answer: ≤ 0.25 µg/mL

Question: And the MIC ([1]; Neisseria gonorrhoeae strain CDC # 167)?
Answer: ≤ 0.25 µg/mL

Question: And the MIC ([1]; Neisseria gonorrhoeae strain CDC # 169)?
Answer: ≤ 0.25 µg/mL

Question: And the MIC ([1]; Neisseria gonorrhoeae strain CDC # 170)?
Answer: ≤ 0.25 µg/mL

Question: And the MIC ([1]; Neisseria gonorrhoeae strain CDC # 171)?
Answer: ≤ 0.25 µg/mL

Question: And the MIC ([1]; Neisseria gonorrhoeae strain CDC # 172)?
Answer: ≤ 0.25 µg/mL

Question: What about the MIC ([1]; Neisseria gonorrhoeae strain CDC # 173) of the same compound?
Answer: ≤ 0.25 µg/mL

Question: And the MIC ([1]; Neisseria gonorrhoeae strain CDC # 174)?
Answer: ≤ 0.25 µg/mL

Question: And the MIC ([1]; Neisseria gonorrhoeae strain CDC # 175)?
Answer: ≤ 0.25 µg/mL

Question: And the MIC ([1]; Neisseria gonorrhoeae strain CDC # 176)?
Answer: ≤ 0.25 µg/mL

Question: And the MIC ([1]; Neisseria gonorrhoeae strain CDC # 177)?
Answer: ≤ 0.25 µg/mL

Question: What about the MIC ([1]; Neisseria gonorrhoeae strain CDC # 178) of the same compound?
Answer: ≤ 0.25 µg/mL

Question: And the MIC ([1]; Neisseria gonorrhoeae strain CDC # 179)?
Answer: ≤ 0.25 µg/mL

Question: And the MIC ([1]; Neisseria gonorrhoeae strain CDC # 180)?
Answer: ≤ 0.25 µg/mL

Question: And the MIC ([1]; Neisseria gonorrhoeae strain CDC # 181)?
Answer: ≤ 0.25 µg/mL

Question: What about the MIC ([1]; Neisseria gonorrhoeae strain CDC # 182) of the same compound?
Answer: ≤ 0.25 µg/mL

Question: And the MIC ([1]; Neisseria gonorrhoeae strain CDC # 183)?
Answer: ≤ 0.25 µg/mL

Question: And the MIC ([1]; Neisseria gonorrhoeae strain CDC # 184)?
Answer: ≤ 0.25 µg/mL

Question: What about the MIC ([1]; Neisseria gonorrhoeae strain CDC # 185) of the same compound?
Answer: ≤ 0.25 µg/mL

Question: What about the MIC ([1]; Neisseria gonorrhoeae strain CDC # 186) of the same compound?
Answer: ≤ 0.25 µg/mL

Question: And the MIC ([1]; Neisseria gonorrhoeae strain CDC # 187)?
Answer: ≤ 0.25 µg/mL

Question: And the MIC ([1]; Neisseria gonorrhoeae strain CDC # 188)?
Answer: ≤ 0.25 µg/mL

Question: And the MIC ([1]; Neisseria gonorrhoeae strain CDC # 189)?
Answer: ≤ 0.25 µg/mL

Question: What about the MIC ([1]; Neisseria gonorrhoeae strain CDC # 190) of the same compound?
Answer: ≤ 0.25 µg/mL

Question: And the MIC ([1]; Neisseria gonorrhoeae strain CDC # 191)?
Answer: ≤ 0.25 µg/mL

Question: And the MIC ([1]; Neisseria gonorrhoeae strain CDC # 192)?
Answer: ≤ 0.25 µg/mL

Question: And the MIC ([1]; Neisseria gonorrhoeae strain CDC # 193)?
Answer: ≤ 0.25 µg/mL

Question: What about the MIC ([1]; Neisseria gonorrhoeae strain CDC # 194) of the same compound?
Answer: ≤ 0.25 µg/mL

Question: What about the MIC ([1]; Neisseria gonorrhoeae strain CDC # 195) of the same compound?
Answer: ≤ 0.25 µg/mL

Question: And the MIC ([1]; Neisseria gonorrhoeae strain CDC # 196)?
Answer: ≤ 0.25 µg/mL

Question: And the MIC ([1]; Neisseria gonorrhoeae strain CDC # 198)?
Answer: ≤ 0.25 µg/mL

Question: And the MIC ([1]; Neisseria gonorrhoeae strain CDC # 199)?
Answer: ≤ 0.25 µg/mL

Question: And the MIC ([1]; Neisseria gonorrhoeae strain CDC # 200)?
Answer: ≤ 0.25 µg/mL

Question: And the MIC ([1]; Neisseria gonorrhoeae strain CDC # 201)?
Answer: ≤ 0.25 µg/mL

Question: What about the MIC ([1]; Neisseria gonorrhoeae strain CDC # 202) of the same compound?
Answer: ≤ 0.25 µg/mL

Question: And the MIC ([1]; Neisseria gonorrhoeae strain CDC # 203)?
Answer: ≤ 0.25 µg/mL

Question: What about the MIC ([1]; Neisseria gonorrhoeae strain CDC # 204) of the same compound?
Answer: ≤ 0.25 µg/mL

Question: And the MIC ([1]; Neisseria gonorrhoeae strain CDC # 205)?
Answer: ≤ 0.25 µg/mL

Question: What about the MIC ([1]; Neisseria gonorrhoeae strain CDC # 206) of the same compound?
Answer: ≤ 0.25 µg/mL

Question: And the MIC ([1]; Neisseria gonorrhoeae strain CDC # 207)?
Answer: ≤ 0.25 µg/mL

Question: What about the MIC ([1]; Neisseria gonorrhoeae strain CDC # 208) of the same compound?
Answer: ≤ 0.25 µg/mL

Question: What about the MIC ([1]; Neisseria gonorrhoeae strain CDC # 209) of the same compound?
Answer: ≤ 0.25 µg/mL

Question: And the MIC ([1]; Neisseria gonorrhoeae strain CDC # 210)?
Answer: ≤ 0.25 µg/mL

Question: What about the MIC ([1]; Neisseria gonorrhoeae strain CDC # 211) of the same compound?
Answer: ≤ 0.25 µg/mL

Question: What about the MIC ([1]; Neisseria gonorrhoeae strain CDC # 212) of the same compound?
Answer: ≤ 0.25 µg/mL

Question: And the MIC ([1]; Neisseria gonorrhoeae strain CDC # 213)?
Answer: ≤ 0.25 µg/mL

Question: What about the MIC ([1]; Neisseria gonorrhoeae strain CDC # 214) of the same compound?
Answer: ≤ 0.25 µg/mL

Question: And the “in vitro activity (in words)” value ([1]; against N. gonococcus (N. gonorrhoeae), Example 2 conclusion)?
Answer: Good in vitro activity

Question: And the LD50 (rabbits)?
Answer: 5000 mg/kg

Question: What about the solubility in water [2] of the same compound?
Answer: poorly soluble
